Laboratory results from patent US7411069B2 (Hypnion, Inc., priority 2003, dated 2008).

How the values were obtained:
Histamine, H1 = Histamine, H1 (Bos taurus, UniProt P30546); assay: Binding specificity panel; conditions: 1.0E−6; average N=2
Text: The percentage inhibition (average; N=2) for these receptors is shown below in Table 12.
Values in Table 12 are expressed as percentage inhibition of specific binding, and these values represent the average of replicate tubes at each of the concentrations tested.

male Wistar rats = assay: SCORE-2000 sleep-wakefulness, locomotor activity and body temperature monitoring
M3 muscarinic receptor = molecular target: T1, M3 muscarinic receptor (Homo sapiens, UniProt P20309); assay: M3 binding assay ([3H]-scopolamine, N-methyl chloride displacement); conditions: average N=2
T1 construct: purchased PerkinElmer, Inc., Wellesley, Mass; host or cells: CHO cells
T1 sequence (P20309 whole entry): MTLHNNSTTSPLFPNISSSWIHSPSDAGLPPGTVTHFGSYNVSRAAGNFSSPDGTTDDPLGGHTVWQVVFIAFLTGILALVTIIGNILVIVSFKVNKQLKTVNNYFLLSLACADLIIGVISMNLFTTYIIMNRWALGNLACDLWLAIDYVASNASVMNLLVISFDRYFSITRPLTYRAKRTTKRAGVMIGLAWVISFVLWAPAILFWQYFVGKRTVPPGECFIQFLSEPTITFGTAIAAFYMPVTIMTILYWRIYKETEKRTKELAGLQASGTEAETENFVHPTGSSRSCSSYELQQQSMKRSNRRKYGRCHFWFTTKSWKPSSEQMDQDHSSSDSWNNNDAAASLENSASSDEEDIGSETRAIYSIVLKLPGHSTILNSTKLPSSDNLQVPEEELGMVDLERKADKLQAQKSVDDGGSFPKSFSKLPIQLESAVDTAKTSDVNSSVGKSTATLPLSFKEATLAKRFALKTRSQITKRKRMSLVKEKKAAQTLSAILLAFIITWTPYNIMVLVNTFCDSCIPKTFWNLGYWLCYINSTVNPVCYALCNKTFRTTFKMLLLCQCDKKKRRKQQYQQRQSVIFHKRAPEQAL

H1 histamine receptor = molecular target: T2, H1 histamine receptor (Bos taurus, UniProt P30546); assay: H1 binding assay ([3H]pyrilamine displacement); set-up: species or system bovine; conditions: average N=2
T2 construct: the receptors were obtained from bovine cerebellar membrane tissue; from tissue; host or cells: bovine cerebellar membranes
T2 sequence (P30546 whole entry): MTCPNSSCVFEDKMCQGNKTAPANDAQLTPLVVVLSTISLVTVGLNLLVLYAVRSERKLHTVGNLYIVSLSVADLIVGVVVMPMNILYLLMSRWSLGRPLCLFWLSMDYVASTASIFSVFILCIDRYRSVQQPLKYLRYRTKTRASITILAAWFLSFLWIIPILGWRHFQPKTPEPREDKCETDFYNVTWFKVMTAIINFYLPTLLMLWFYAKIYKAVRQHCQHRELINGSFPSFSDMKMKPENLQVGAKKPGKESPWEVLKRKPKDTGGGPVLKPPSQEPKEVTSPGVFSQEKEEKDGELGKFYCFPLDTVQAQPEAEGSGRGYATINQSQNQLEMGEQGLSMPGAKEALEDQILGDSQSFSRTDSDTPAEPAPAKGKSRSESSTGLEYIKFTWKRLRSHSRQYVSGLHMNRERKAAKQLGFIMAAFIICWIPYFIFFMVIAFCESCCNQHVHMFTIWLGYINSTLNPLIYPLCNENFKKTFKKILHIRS

Histamine, H1, sequence (P30546 whole entry): as above

SMILES: CC(CC(=O)O)N1CCC(=C2c3ccc(F)cc3COc3ccccc32)CC1 (stereo not shown) [Compound 37]
- percentage inhibition of specific binding (Histamine, H1): 23.13%
- REM inhibition (male Wistar rats; 10 mg/kg): did not produce any
- rebound insomnia (male Wistar rats; 10 mg/kg): did not produce any
- reduction in body temperature (male Wistar rats; 10 mg/kg): no disproportional reduction
- reduction in locomotor activity (LMA) (male Wistar rats; 10 mg/kg): no disproportional reduction
- Cumulative NREM sleep time increase, adjusted for baseline and relative to vehicle (male Wistar rats; 10 mg/kg PO, CT-18): 53 min
- absolute average sleep bout (male Wistar rats; 10 mg/kg PO, CT-18): 9 min
- average sleep bout length increase, adjusted for baseline and relative to vehicle (male Wistar rats; 10 mg/kg PO, CT-18): 5.3 min
- peak NREM sleep time (male Wistar rats; 10 mg/kg PO, CT-18): 64 % per hour
- body temperature (male Wistar rats; 30 mg/kg): unacceptable drop in body temperature
- reduction in LMA (male Wistar rats; 30 mg/kg): no disproportional reduction
- Cumulative NREM sleep time increase, adjusted for baseline and relative to vehicle (male Wistar rats; 30 mg/kg PO, CT-18): 62 min
- absolute average sleep bout (male Wistar rats; 30 mg/kg PO, CT-18): 9 min
- absolute longest sleep bout post-treatment (male Wistar rats; 30 mg/kg PO, CT-18): 25 min
- average sleep bout length increase, adjusted for baseline and relative to vehicle (male Wistar rats; 30 mg/kg PO, CT-18): 5.6 min
- peak NREM sleep time (male Wistar rats; 30 mg/kg PO, CT-18): 72 % per hour
- REM inhibition (male Wistar rats; 30 mg/kg, CT-18): did not produce any appreciable REM inhibition
- % Inhibition, M3 (M3 muscarinic receptor; concentration 1.0E−5): 4.27%
- % Specific Binding, M3 (M3 muscarinic receptor; concentration 1.0E−5): 95.73%
- % Inhibition, M3 (M3 muscarinic receptor; concentration 1.0E−6): 0.79%
- % Specific Binding, M3 (M3 muscarinic receptor; concentration 1.0E−6): 99.21%
- % Inhibition, M3 (M3 muscarinic receptor; concentration 1.0E−7): 5.85%
- % Specific Binding, M3 (M3 muscarinic receptor; concentration 1.0E−7): 93.15%
- % Inhibition, M3 (M3 muscarinic receptor; concentration 1.0E−8): −8.34%
- % Specific Binding, M3 (M3 muscarinic receptor; concentration 1.0E−8): 108.34%
- % Inhibition, M3 (M3 muscarinic receptor; concentration 1.0E−9): −0.65%
- % Specific Binding, M3 (M3 muscarinic receptor; concentration 1.0E−9): 100.65%
- % Specific Binding, M3 (M3 muscarinic receptor; concentration 3.0E−6): 94.59%
- % Specific Binding, M3 (M3 muscarinic receptor; concentration 3.0E−7): 94.45%
- % Inhibition, M3 (M3 muscarinic receptor; concentration 3.0E−8): 6.99%
- % Specific Binding, M3 (M3 muscarinic receptor; concentration 3.0E−8): 93.01%
- % Inhibition, H1 (H1 histamine receptor; concentration 1.0E−5): 95.79%
- % Specific Binding, H1 (H1 histamine receptor; concentration 1.0E−5): 3.21%
- % Inhibition, H1 (H1 histamine receptor; concentration 1.0E−6): 93.75%
- % Specific Binding, H1 (H1 histamine receptor; concentration 1.0E−6): 6.25%
- % Inhibition, H1 (H1 histamine receptor; concentration 1.0E−7): 60.82%
- % Specific Binding, H1 (H1 histamine receptor; concentration 1.0E−7): 39.18%
- % Inhibition, H1 (H1 histamine receptor; concentration 1.0E−8): 8.60%
- % Specific Binding, H1 (H1 histamine receptor; concentration 1.0E−8): 91.40%
- % Inhibition, H1 (H1 histamine receptor; concentration 1.0E−9): 2.99%
- % Specific Binding, H1 (H1 histamine receptor; concentration 1.0E−9): 97.01%
- % Specific Binding, H1 (H1 histamine receptor; concentration 3.0E−6): 6.74%
- % Inhibition, H1 (H1 histamine receptor; concentration 3.0E−7): 81.03%
- % Specific Binding, H1 (H1 histamine receptor; concentration 3.0E−7): 18.97%
- % Inhibition, H1 (H1 histamine receptor; concentration 3.0E−8): 30.37%
- % Specific Binding, H1 (H1 histamine receptor; concentration 3.0E−8): 69.53%
